Among the test systems are KM12 colon; ACHN renal; UACC-62 melanoma; K-562 leukemia; U251 CNS; NCI-H23 lung; CCRF-CEM leukemia; SF-268 CNS; SF-539 CNS; RXF 393 renal.
Assay in all cases: NCI-60 cell line screen, 48 h

Structures are written as SMILES.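 Cultured in 96-well plates, cells were exposed to test compound for 48 hours across five concentrations. At the GI50, growth is halved. TGI marks complete inhibition of growth.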

`CN1CC(C(=O)C2C(=O)c3ccccc3C2=O)C(=O)C(=O)C(C(=O)C2C(=O)c3ccccc3C2=O)C1` (stereo not drawn): the TGI with KM12 colon, in the assay with ACHN renal, in the assay on UACC-62 melanoma, in the assay with K-562 leukemia, in the assay on U251 CNS and with NCI-H23 lung was > 100 µM each time. Further, the TGI with CCRF-CEM leukemia, with SF-268 CNS and in the assay with SF-539 CNS was > 100 µM in each case.

Consider `CCOC(=O)C(=Cc1ccc(C(=O)OC)cc1)C(=O)OCC`, for which the TGI in the assay on KM12 colon is 8.15 µM; with ACHN renal, 3.48 µM; in the assay with UACC-62 melanoma, 5.47 µM; with K-562 leukemia it was > 100 µM; in the assay with U251 CNS, 4.77 µM; in the assay on NCI-H23 lung, 3.36 µM. Moreover, the figures for the TGI with CCRF-CEM leukemia, in the assay with SF-268 CNS and in the assay with SF-539 CNS were 4.71 µM, 6.51 µM and 3.17 µM, respectively.

Turning to `CCN1c2ccccc2C(Cl)(c2ccc(N(C)C)cc2)c2ccccc21`, the GI50 was 4.41 µM with KM12 colon; 12.4 µM in the assay on ACHN renal; 11.6 µM with UACC-62 melanoma; 3.1 µM in the assay with K-562 leukemia; 3.69 µM in the assay on U251 CNS; 3.04 µM in the assay with NCI-H23 lung. Also, the GI50 with CCRF-CEM leukemia is 2.34 µM; in the assay on SF-268 CNS, 5.61 µM; in the assay on SF-539 CNS it was 15.5 µM. Also, the TGI was found to be 15.6 µM in the assay with KM12 colon; 28.4 µM in the assay on ACHN renal; 42.1 µM in the assay on UACC-62 melanoma; 25.7 µM in the assay with K-562 leukemia; 17.4 µM in the assay with U251 CNS; 14.4 µM in the assay with NCI-H23 lung. Moreover, the results for the TGI with CCRF-CEM leukemia, with SF-268 CNS and with SF-539 CNS were 17 µM, 19.3 µM and 29.2 µM, respectively.

Regarding `S=C1Nc2ccc(Cl)cc2C2(c3ccccc3)N3CCN=C3NN12` (stereo not drawn), the GI50 was 52.1 µM in the assay on KM12 colon; 55.9 µM with ACHN renal; 29.3 µM with UACC-62 melanoma; 24.9 µM in the assay on K-562 leukemia; 35.1 µM with U251 CNS; > 100 µM in the assay with NCI-H23 lung. Further, the values for the GI50 with CCRF-CEM leukemia, in the assay on SF-268 CNS and in the assay on SF-539 CNS were 26.9 µM, 28.6 µM and 36.7 µM, respectively. Also, the TGI is > 100 µM with KM12 colon; > 100 µM in the assay with ACHN renal; > 100 µM in the assay on UACC-62 melanoma; 66.1 µM in the assay on K-562 leukemia; > 100 µM in the assay on U251 CNS; > 100 µM with NCI-H23 lung. For the same compound, the TGI is 70.7 µM with CCRF-CEM leukemia, > 100 µM with SF-268 CNS and > 100 µM in the assay on SF-539 CNS.

Turning to `COc1ccccc1NC(=O)C1=C(C)NC(C)=C(C(=O)Nc2ccccc2OC)C1c1ccc(C)cc1`, the TGI in the assay with KM12 colon, with ACHN renal, in the assay on UACC-62 melanoma, in the assay with K-562 leukemia, in the assay on U251 CNS and in the assay with NCI-H23 lung was > 100 µM throughout. The TGI with RXF 393 renal, with SF-268 CNS and with SF-539 CNS was > 100 µM throughout.

Regarding `O=Nc1ccc2ccccc2c1O`, the GI50 is 6.23 µM in the assay on KM12 colon; 5.5 µM in the assay with ACHN renal; 2.23 µM in the assay on UACC-62 melanoma; 3.11 µM in the assay with U251 CNS; 3.18 µM in the assay on NCI-H23 lung; 14 µM in the assay on RXF 393 renal. Moreover, the results for the GI50 in the assay with SF-268 CNS and in the assay with SF-539 CNS were 3.97 µM and 20.8 µM, respectively. Also, the TGI worked out at 19.2 µM with KM12 colon; 18.4 µM in the assay on ACHN renal; 5.89 µM in the assay with UACC-62 melanoma; 9.46 µM in the assay with U251 CNS; 16.1 µM in the assay with NCI-H23 lung; 27.3 µM with RXF 393 renal. The TGI with SF-268 CNS stood at 13.3 µM; with SF-539 CNS, 37.2 µM.

For the compound `CCN(c1ccc(Br)cc1)c1c(Br)c(=O)nc2ccccn12`, the TGI in the assay with KM12 colon, in the assay on ACHN renal, with UACC-62 melanoma, in the assay on K-562 leukemia, in the assay on U251 CNS and in the assay on NCI-H23 lung was > 100 µM each time. The TGI with CCRF-CEM leukemia, in the assay on SF-268 CNS and with SF-539 CNS was > 100 µM throughout.

For `COc1cccc(Cc2c3cc(OC)ccc3cc[n+]2C)c1`, the TGI in the assay with KM12 colon, in the assay with ACHN renal, in the assay with K-562 leukemia, in the assay with U251 CNS, in the assay on NCI-H23 lung and in the assay with CCRF-CEM leukemia was > 100 µM in each case. Moreover, the TGI with SF-268 CNS is > 100 µM.

Regarding `CC1=CCC23C(C1)OC(Br)(C=CC2(C)O)C3(C)C` (stereo not drawn), the TGI with KM12 colon, in the assay with ACHN renal, in the assay with UACC-62 melanoma, in the assay with K-562 leukemia, in the assay with NCI-H23 lung and with CCRF-CEM leukemia was > 100 µM each time. For the same compound, the TGI in the assay with SF-268 CNS and with SF-539 CNS was > 100 µM throughout.

Turning to `CN1CCN(Cc2ccc(NC(=O)c3ccc(C#Cc4c(N)ncc5ccc(F)cc45)cc3)cc2C(F)(F)F)CC1`, the GI50 with KM12 colon is 0.733 µM; with ACHN renal it was 0.97 µM; with UACC-62 melanoma, 1 µM; with K-562 leukemia, 0.677 µM; with U251 CNS it was 0.851 µM; in the assay on NCI-H23 lung it was 0.968 µM. For the same compound, the results for the GI50 with RXF 393 renal and in the assay on SF-268 CNS were 0.835 µM and 0.948 µM, respectively. The TGI amounted to 1.52 µM in the assay on KM12 colon; 1.71 µM with ACHN renal; 1.84 µM in the assay with UACC-62 melanoma; 1.87 µM with K-562 leukemia; 1.59 µM in the assay on U251 CNS; 1.89 µM in the assay on NCI-H23 lung. Besides, the TGI in the assay on RXF 393 renal amounted to 1.6 µM; in the assay with SF-268 CNS it was 2.14 µM; with SF-539 CNS, 1.78 µM.

Turning to `O=C(CC(=O)N1N=C(N2c3ccccc3Sc3ccccc32)CC1c1ccccc1)Nc1ccc(Cl)cc1` (stereo not drawn), the TGI in the assay with KM12 colon, with ACHN renal, in the assay with UACC-62 melanoma, in the assay with U251 CNS, in the assay on NCI-H23 lung and in the assay with RXF 393 renal was > 100 µM throughout. Also, the TGI with SF-268 CNS and in the assay with SF-539 CNS was > 100 µM each time.

Source of the values: PubChem BioAssay (NCI).
